PMC10819430, “Binding Affinity and Mechanism of Six PFAS with Human Serum Albumin: Insights from Multi-Spectroscopy, DFT and Molecular Dynamics Approaches” (Toxics, 2024)
Values joined by “and” are separate entries in the source; they are usually repeats but may differ in a detail not shown here. Equal entries are not always repeated. Where two headings read alike, the source gives them in different places.

Assays:
[1] = human body, cited from earlier work
HSA [2] = molecular target: T1, HSA (Homo sapiens, UniProt P02768); experiment: Circular dichroism (CD) spectrum, secondary structure of HSA; details: HSA:PFAS 1:18, 298 K; for HSA secondary structure: β-Sheet: HSA alone 4.9; for HSA secondary structure: β-Turn: HSA alone 16.9; for HSA secondary structure: Random Coil: HSA alone 36.7; for HSA secondary structure: α-Helix: HSA alone 41.6
T1 construct: HSA (≥96%) and six PFAS were all purchased from Aladdin Chemicals (Shanghai, China); purchased Aladdin Chemicals (Shanghai, China)
T1 sequence (P02768 25-609): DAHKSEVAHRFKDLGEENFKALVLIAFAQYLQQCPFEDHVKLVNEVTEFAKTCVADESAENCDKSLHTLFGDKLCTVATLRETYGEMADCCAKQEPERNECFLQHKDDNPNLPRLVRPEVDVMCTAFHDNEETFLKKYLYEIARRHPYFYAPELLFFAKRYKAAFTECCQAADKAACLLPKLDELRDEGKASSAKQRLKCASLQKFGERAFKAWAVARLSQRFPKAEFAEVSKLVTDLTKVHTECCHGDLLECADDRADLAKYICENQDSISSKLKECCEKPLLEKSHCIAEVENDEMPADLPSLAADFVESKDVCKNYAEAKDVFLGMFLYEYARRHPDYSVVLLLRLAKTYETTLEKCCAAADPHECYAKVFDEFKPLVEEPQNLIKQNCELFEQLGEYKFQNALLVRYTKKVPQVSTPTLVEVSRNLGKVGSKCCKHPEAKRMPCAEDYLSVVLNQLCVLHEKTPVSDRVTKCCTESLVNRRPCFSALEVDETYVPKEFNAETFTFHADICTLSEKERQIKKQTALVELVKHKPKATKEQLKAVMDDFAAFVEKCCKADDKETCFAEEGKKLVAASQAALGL
Text: CD measurements (190–260 nm) were taken before and after the addition of PFAS to HSA using a J-815 CD spectrometer equipped with a PMT detector (JASCO, Tokyo, Japan). The protein concentration was set at 1 × 10^−6 mol/L, with a fixed HSA-to-PFAS concentration ratio of 1:18. The scanning rate was set to 100 nm/min with 0.5 nm increments, and the photometric mode of HT. Each sample was scanned three times. The blank buffer control was automatically subtracted during the scanning process. All tests were carried out at 298 K. The CONTIN analysis method from the DichroWeb was employed to determine the contents of the protein’s secondary structure.

HSA [3] = molecular target: T1, HSA; experiment: 3D-EEM fluorescence spectra of HSA–PFAS; details: HSA 1 × 10^−6, PFAS 1.8 × 10^−5 mol·L^−1; for 3D-EEM Peak A Intensity F: HSA alone 673.66; for 3D-EEM Peak B Intensity F: HSA alone 996.906
Experimental: The 3D-EEM spectra were recorded using specific scanning parameters at the scanning rate of 2400 nm·min^−1, an […] with 5 nm increments, and an emission of 280–550 nm with 2 nm increments. The concentrations of PFAS and HSA were set at 18 × 10^−6 mol·L^−1 and 1 × 10^−6 mol·L^−1, respectively.

HSA [4] = molecular target: T1, HSA; experiment: Competitive probe experiment (warfarin, ibuprofen, lidocaine); format: binding
Text: Competitive probe experiments are commonly used to identify specific binding sites in the structure of proteins. Three probe molecules known to bind to distinct binding sites on HSA were selected: warfarin (subdomain IIA), ibuprofen (subdomain IIIA), and lidocaine (subdomain IIB). These probe molecules would compete with PFAS for the same protein sites when binding with HSA. The potential binding sites can be inferred by monitoring and comparing changes in fluorescence intensity when probe molecules are present.

[5] = molecular target: T2, Human Serum Albumin (HSA) (Homo sapiens, UniProt P02768); experiment: Fluorescence quenching of HSA by PFAS (Stern–Volmer, double logarithmic and Van't Hoff analysis); format: binding; details: for quenching of HSA fluorescence intensity: PFAS 1.8 × 10^−5 mol·L^−1, HSA 1 × 10^−6 mol·L^−1, 298 K; for ΔH / ΔS: Van't Hoff, 298–310 K; for affinity for HSA: fluorescence quenching experiments; for main interaction force from thermodynamic analysis: signs of ΔH and ΔS
T2 construct: HSA (≥96%) and six PFAS were all purchased from Aladdin Chemicals (Shanghai, China); purchased Aladdin Chemicals (Shanghai, China)
T2 sequence (P02768 25-609): as above
Experimental: Fluorescence quenching experiments greatly benefit studies on the interactions between ligands and proteins. Initially, 3 mL of HSA stock solution was put into a 10 mm square quartz cuvette. Following that, PFAS stock solution was gradually added to achieve various final concentrations, namely 0, 3, 6, 9, 12, 15, 18 × 10^−6 mol·L^−1. By incrementally increasing the molar ratio of PFAS vs. HSA up to 18, their binding characteristics can be better investigated.
A thermostat (TR-01A, Bishui Corp, Beijing, China) was used to precisely control the solution temperature, which was set at 298, 304, and 310 K. This device includes a temperature controller and a metal heating cuvette module in conjunction with a fluorometer. This thermostat has a temperature range of 20–60 °C (293–333 K) and an accuracy of 0.1 °C Celsius. This step is critical for keeping the experimental conditions stable. Following that, the samples were fluorescence-scanned with a fluorometer (Cary Eclipse, Agilent, CA, USA). The excitation wavelength was set at 275 nm to efficiently stimulate tryptophan (Trp) and tyrosine (Tyr) residues. Additional test parameters include an emission of 275–500 nm, scanning rate of 1200 nm/min and PTV voltage of 700 v. Fluorescence quenching experiments were repeated three times, and the average values were taken for further calculation.
Fluorescence internal filtration (IFE) refers to the phenomenon where the fluorescence intensity decreases during fluorescence measurement due to the absorption of excitation or emission light by sample components (small molecules or proteins) in solution [19, 20]. This phenomenon is more obvious in the samples with a high concentration of adsorbent. A fluorescence correction formula was used in this study to correct the IFE effect on the data, as follows: Fcorr=Fobs×10^Aex+Aem/2 where Fcorr and Fobs are corrected and observed fluorescence emission intensities, respectively, Aex and Aem are UV-vis absorbances at the excitation and emission wavelengths.
The quenching constant can be calculated using the Stern–Volmer Equation (3). The results are shown in Table 2 and Figure 1: F0/F=1+Kqτ0=1+KsvQ where F0 and F refer to HSA fluorescence intensities without and with the quencher (PFAS solution); Kq is the biomacromolecule’s quenching rate constant; τ0 is the average fluorescence lifetime of the fluorescent molecule when the quencher PFAS is absent, usually taken as 10^−8 s; [Q] is the PFAS concentration; Ksv is the Stern–Volmer quenching constant; F0/F is the vertical axis; the Stern–Volmer curves of this system are 298, 304, and 310 K.
The double logarithmic formula can be used to calculate the binding constants and binding site numbers of HSA–PFAS complexes: logF0−F/F=logKb+nlogQ where F0 and F are parameters representing the initial fluorescence intensity and the fluorescence intensity after adding PFAS, respectively. The binding characteristics are represented by the binding constant, Kb, and the number of binding sites, n. The slope of the straight line is the number of binding sites, n, and the binding constant Kb is obtained from the exponent of the straight line’s intercept using the double logarithmic graph. Figure A2 and Table 2 show the calculation results.
The enthalpy change (∆H), entropy change (∆S), and free energy change (∆G) calculated from the Van’t Hoff equation [50] can be used to determine the type of interaction. lnKb=−ΔH/RT+ΔS/R ΔG=ΔH−TΔS=−RTlnKb where R represents the ideal gas constant (8.314 J·mol^−1·K^−1).

| Compound | HSA secondary structure: β-Sheet (HSA [2]) [%] | HSA secondary structure: β-Turn (HSA [2]) [%] | HSA secondary structure: Random Coil (HSA [2]) [%] | HSA secondary structure: α-Helix (HSA [2]) [%] | 3D-EEM Peak A Position λex/λem (HSA [3]) | 3D-EEM Peak B Position λex/λem (HSA [3]) | 3D-EEM Peak A Intensity F (HSA [3]) [a.u.] | 3D-EEM Peak B Intensity F (HSA [3]) [a.u.] | φ (rate of decrease in Kb) (HSA [4]; ibuprofen probe) [%] | φ (rate of decrease in Kb) (HSA [4]; lidocaine probe) [%] | φ (rate of decrease in Kb) (HSA [4]; warfarin probe) [%] | fluorescence quenching mechanism [5] | quenching of HSA fluorescence intensity [5] [%] | KSV (Stern–Volmer quenching constant) ([5]; T = 298 K) | n (number of binding sites) ([5]; T = 298 K) | ΔG ([5]; T = 298 K) [kJ/mol] | Kq (quenching rate constant) ([5]; T = 298 K, τ0 taken as 10^−8 s) | KSV (Stern–Volmer quenching constant) ([5]; T = 304 K) | n (number of binding sites) ([5]; T = 304 K) | ΔG ([5]; T = 304 K) [kJ/mol] | other results |
| --- | --- | --- | --- | --- | --- | --- | --- | --- | --- | --- | --- | --- | --- | --- | --- | --- | --- | --- | --- | --- | --- |
| O=S(=O)(O)C(F)(F)C(F)(F)C(F)(F)C(F)(F)C(F)(F)C(F)(F)C(F)(F)C(F)(F)F [PFOS, Perfluorooctanesulfonic acid] |  |  |  |  |  |  |  |  |  |  |  |  |  |  |  |  |  |  |  |  | average half-life ([1]; study on 19 PFAS): ~4.52 years; average half-life [1]: 5.4 years |
| O=C(O)C(F)(F)C(F)(F)C(F)(F)C(F)(F)C(F)(F)C(F)(F)F [PFHpA, Perfluoroheptanoic Acid] | 5.5 | 15.5 | 39.4 | 39.6 | 280/336 | 230/335 | 656.89 | 997.01 | 42.7 | 48.8 | 98.9 | static quenching | 12.1 | 0.69 ± 0.05 × 10^4 L·mol^−1 | 0.96 ± 0.04 | -20.86 | 0.69 ± 0.05 × 10^12 L·mol^−1·s^−1 | 0.53 ± 0.07 × 10^4 L·mol^−1 | 1.42 ± 0.06 | -33.34 | Kq (quenching rate constant) ([5]; T = 304 K, τ0 taken as 10^−8 s): 0.53 ± 0.07 × 10^12 L·mol^−1·s^−1; KSV (Stern–Volmer quenching constant) ([5]; T = 310 K): 0.32 ± 0.04 × 10^4 L·mol^−1; n (number of binding sites) ([5]; T = 310 K): 1.50 ± 0.05; ΔG ([5]; T = 310 K): -34.86 kJ/mol; Kq (quenching rate constant) ([5]; T = 310 K, τ0 taken as 10^−8 s): 0.32 ± 0.04 × 10^12 L·mol^−1·s^−1; ΔH [5]: 324.98 ± 14.22 kJ/mol; ΔS [5]: 1166.7 ± 42.7 J·mol^−1·K^−1; affinity for HSA [5]: low affinity; main interaction force from thermodynamic analysis [5]: hydrophobic interactions |
| O=C(O)C(F)(OC(F)(F)C(F)(OC(F)(F)C(F)(F)C(F)(F)F)C(F)(F)F)C(F)(F)F (centres unmarked) [HFPO-TA, Perfluoro-2,5-dimethyl-3,6-dioxanonanoic Acid] | 5.1 | 15.8 | 38.5 | 40.6 | 280/321 | 230/314 | 499.16 | 861.38 | 23.8 | 35.3 | 99.6 | mixed quenching | 25.1 | 1.78 ± 0.09 × 10^4 L·mol^−1 | 1.49 ± 0.03 | -37.47 | 1.78 ± 0.09 × 10^12 L·mol^−1·s^−1 | 1.95 ± 0.13 × 10^4 L·mol^−1 | 1.78 ± 0.07 | -46.16 | Kq (quenching rate constant) ([5]; 298 K): 1.78e+12 L/mol/s; Kq (quenching rate constant) ([5]; T = 304 K, τ0 taken as 10^−8 s): 1.95 ± 0.13 × 10^12 L·mol^−1·s^−1; KSV (Stern–Volmer quenching constant) ([5]; T = 310 K): 1.98 ± 0.08 × 10^4 L·mol^−1; n (number of binding sites) ([5]; T = 310 K): 2.09 and 2.09 ± 0.08; ΔG ([5]; T = 310 K): -55.57 kJ/mol; Kq (quenching rate constant) ([5]; T = 310 K, τ0 taken as 10^−8 s): 1.98 ± 0.08 × 10^12 L·mol^−1·s^−1; ΔH [5]: 412.15 ± 8.44 kJ/mol; ΔS [5]: 1508.3 ± 30.8 J·mol^−1·K^−1; HSA fluorescence peak position after PFAS addition (blue shift from 337 nm) ([5]; as the concentration of PFAS increases): 315 nm; affinity for HSA [5]: high affinity; main interaction force from thermodynamic analysis [5]: hydrophobic interactions |
